Measured values from US20220356163A1, “SMALL MOLECULE INHIBITORS OF Id PROTEINS” (MEMORIAL SLOAN KETTERING CANCER CENTER, priority 2019, published 2022).

Tested on: choroidal neovascularization
Test: Laser-induced choroidal neovascularization (CNV) model of AMD
Assay type: in vivo, mouse
Settings: intravitreal days 1 and 7; 10 μg AGX51E2, 40 μg Aflibercept
Text: Mouse mode/s of ocular neovascularization. CNV was induced as previously described. Tobe et al., Am. J. Pathol., 153, 1641-1646 (1998). Briefly, 4-6 week-old female Id1^−/− or Id3^−/− mice and littermate control Id1^+/+ or Id3^+/+ mice (all in C57BL/6 background) had laser-induced rupture of Bruch's membrane at three locations in each eye and after 14 days mice were euthanized, eyes were removed, and choroidal flat mounts were stained with FITC-labeled Griffonia simplicifolia lectin (Vector Laboratories, Burlingame, Calif.) which selectively stains vascular cells (n=12 mice per group). Flat mounts were examined by fluorescence microscopy and the area of each CNV was measured by image analysis with Image-Pro Plus software (Media Cybernetics, Silver Spring, Md.) by an observer masked with respect to experimental groups. In other experiments, wild type 4-6 week-old, female, C57BL/6 mice had rupture of Bruch's membrane in each eye followed by intravitreal injection of 1-30 μg of AGX51 (racemic, E1 or E2) or vehicle in one eye immediately and after 7 days or mice were given twice daily i.p. injections of 500 μg of AGX51 or vehicle for 14 days (n=7-10 mice per group). The area of CNV was measured 14 days after rupture of Bruch's membrane. For Aflibercept and AGX-A treatment experiments, rupture of Bruch's membrane was carried out and then mice were treated with 40 μg of Aflibercept, 10 μg of AGX51E2, 1-5 μg of AGX51, 1-5 μg of AGX-A, DMSO or combinations. The mice were 4-6 week-old female C57BL/6. After 14 days, the mice were euthanized and CNV was measured as described above.

Substance: Aflibercept: clinically approved treatment for AMD, a VEGF trap
- CNV area, head-to-head and combination treatment: failed to reach statistical significance
